Data reported in ChEMBL document CHEMBL4765481, “Sialyltransferase Inhibitors Suppress Breast Cancer Metastasis” (J Med Chem, 2021).
The source made the active and inactive calls. The calls are words filed in the database; no cut-off is given here.

Legend:
[1] = tested on: MDA-MB-231; test: Inhibition of Sialyltransferase in human MDA-MB-231 cells assessed as reduction in FAK Tyr925 phosphorylation level at 10 to 20 uM incubated for 48 hrs by immunoblot analysis; format: cell-based; settings: dose 10-20 µM
[2] = tested on: MDA-MB-231; test: Inhibition of Sialyltransferase in human MDA-MB-231 cells assessed as reduction in NFkappaB Ser536 phosphorylation level at 10 to 20 uM incubated for 48 hrs by immunoblot analysis; format: cell-based; settings: dose 10-20 µM
[3] = Apparent permeability at pH 7.4 by PAMPA
[4] = tested on: MDA-MB-231; test: Inhibition of Sialyltransferase in human MDA-MB-231 cells assessed as reduction in FAK Tyr397 phosphorylation level at 10 to 20 uM incubated for 48 hrs by immunoblot analysis; format: cell-based; settings: dose 10-20 µM
[5] = tested on: MDA-MB-231; test: Inhibition of Sialyltransferase in human MDA-MB-231 cells assessed as decrease p-talin-1 association with integrins beta1 and beta 3 after 48 hrs by immunofluorescence and coimmunoprecipitation assay; format: cell-based
[6] = tested on: MDA-MB-231; test: Inhibition of Sialyltransferase in human MDA-MB-231 cells assessed as reduction in paxillin Tyr118 phosphorylation level at 10 to 20 uM incubated for 48 hrs by immunoblot analysis; format: cell-based; settings: dose 10-20 µM
[7] = tested on: MDA-MB-231; test: Inhibition of Sialyltransferase in human MDA-MB-231 cells assessed as reduction in FAK Tyr576/577 phosphorylation level at 10 to 20 uM incubated for 48 hrs by immunoblot analysis; format: cell-based; settings: dose 10-20 µM
[8] = tested on: MDA-MB-231; test: Inhibition of Sialyltransferase in human MDA-MB-231 cells assessed as reduction in IKKalpha/beta Ser176/180 phosphorylation level at 10 to 20 uM incubated for 48 hrs by immunoblot analysis; format: cell-based; settings: dose 10-20 µM
[9] = target: T1, Sialyltransferase ST3Gal-I (Rattus norvegicus) (UniProt Q6H8N0); test: Inhibition of rat alpha-2,3-O-ST3GALI assessed as reduction in sialylated-product formation at 500 uM using p-nitrophenyl T-antigen and CMP-NeuSAc incubated for 15 mins by reverse-phase HPLC analysis relative to control
T1 sequence (whole entry): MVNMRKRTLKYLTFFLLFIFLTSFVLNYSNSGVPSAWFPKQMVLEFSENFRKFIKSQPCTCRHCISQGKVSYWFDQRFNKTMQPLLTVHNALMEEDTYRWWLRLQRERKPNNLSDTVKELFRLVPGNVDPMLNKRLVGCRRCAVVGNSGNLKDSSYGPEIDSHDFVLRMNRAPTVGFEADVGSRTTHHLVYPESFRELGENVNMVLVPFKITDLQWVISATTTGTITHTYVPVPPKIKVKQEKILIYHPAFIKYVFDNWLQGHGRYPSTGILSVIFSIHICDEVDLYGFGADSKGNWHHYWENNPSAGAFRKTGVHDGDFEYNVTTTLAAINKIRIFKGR

[10] = target: T1, Sialyltransferase ST3Gal-I (Rattus norvegicus); test: Inhibition of rat alpha-2,3-O-ST3GALI assessed as reduction in sialylated-product formation at 1 mM using p-nitrophenyl T-antigen and CMP-NeuSAc incubated for 15 mins by reverse-phase HPLC analysis relative to control
[11] = species: Rattus norvegicus; test: Selectivity ratio of inhibition of rat alpha-2,3-O-ST3GALI at 500 uM to IC50 for inhibition of rat alpha-2,3-N-ST3GALIII
[12] = tested on: MDA-MB-231; test: Inhibition of serum-induced cell migration of human MDA-MB-231 cells at 20 uM incubated for 16 hrs by Boyden chamber assay; format: functional, cell-based
[13] = Toxicity in human MDA-MB-231 cells assessed as cell survival at >60 uM relative to control; format: cell-based; settings: read-out: Survival
[14] = tested on: MDA-MB-231; test: Inhibition of Sialyltransferase in human MDA-MB-231 cells assessed as reduction in IkappaB-alpha Ser32 phosphorylation level at 10 to 20 uM incubated for 48 hrs by immunoblot analysis; format: cell-based; settings: dose 10-20 µM
[15] = target: T2, Beta-galactoside alpha-2,6-sialyltransferase 1 (Homo sapiens, UniProt P15907); test: Inhibition of human alpha-2,6-ST6GAL1 assessed as reduction in sialylated-product formation using Gal-beta1-4GlcNac and CMP-NeuSAc incubated for 15 mins by reverse-phase HPLC analysis
T2 sequence (P15907 whole entry): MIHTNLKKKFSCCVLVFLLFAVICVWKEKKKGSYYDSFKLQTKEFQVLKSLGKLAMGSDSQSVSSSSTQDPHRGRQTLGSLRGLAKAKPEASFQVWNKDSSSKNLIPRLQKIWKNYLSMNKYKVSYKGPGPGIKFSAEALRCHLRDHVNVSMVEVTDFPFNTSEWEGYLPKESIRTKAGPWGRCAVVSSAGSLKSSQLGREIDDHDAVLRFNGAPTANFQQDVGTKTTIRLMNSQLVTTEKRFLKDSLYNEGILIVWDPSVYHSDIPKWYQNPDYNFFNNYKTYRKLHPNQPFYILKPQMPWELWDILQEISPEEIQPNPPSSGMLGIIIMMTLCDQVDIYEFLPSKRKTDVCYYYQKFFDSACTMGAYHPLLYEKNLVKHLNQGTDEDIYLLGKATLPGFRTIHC

[16] = tested on: MDA-MB-231; test: Inhibition of Sialyltransferase in human MDA-MB-231 cells assessed as suppression of sialylation of integrin subunit beta1/beta3/beta4/beta5 at 10 to 20 um after 48 hrs by Western blot analysis; format: cell-based; settings: dose 10-20 µM
[17] = target: T3, CMP-N-acetylneuraminate-beta-1,4-galactoside alpha-2,3-sialyltransferase (Rattus norvegicus, UniProt Q02734); test: Inhibition of rat alpha-2,3-N-ST3GALIII assessed as reduction in sialylated-product formation using Gal-beta1-4Glc and CMP-NeuSAc incubated for 1.5 hrs by reverse-phase HPLC analysis
T3 sequence (Q02734 whole entry): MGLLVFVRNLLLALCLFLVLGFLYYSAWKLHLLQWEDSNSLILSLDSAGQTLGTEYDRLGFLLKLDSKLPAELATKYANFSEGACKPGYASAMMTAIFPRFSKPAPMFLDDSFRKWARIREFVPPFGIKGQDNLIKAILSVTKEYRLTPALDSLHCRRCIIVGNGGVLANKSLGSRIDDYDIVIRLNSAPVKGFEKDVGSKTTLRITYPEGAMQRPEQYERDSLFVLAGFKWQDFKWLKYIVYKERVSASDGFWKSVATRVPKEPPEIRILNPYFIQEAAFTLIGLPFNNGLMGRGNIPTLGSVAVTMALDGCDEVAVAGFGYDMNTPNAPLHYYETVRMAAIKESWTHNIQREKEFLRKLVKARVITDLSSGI

[18] = species: Rattus norvegicus; test: Selectivity ratio of inhibition of rat alpha-2,3-O-ST3GALI at 1000 uM to IC50 for inhibition of rat alpha-2,3-N-ST3GALIII
[19] = Selectivity ratio of IC50 for of inhibition of rat alpha-2,3-O-ST3GALI to IC50 for inhibition of human alpha-2,6-ST6GAL1
[20] = tested on: MDA-MB-231; test: Inhibition of Sialyltransferase in human MDA-MB-231 cells assessed as reduction in integrin isoforms expression (alphaV/alpha5/beta1/beta3/beta4/beta5) at 10 to 20 uM incubated for 48 hrs by immunoblot analysis; format: cell-based; settings: dose 10-20 µM
[21] = tested on: MDA-MB-231; test: Inhibition of serum-induced cell migration of human MDA-MB-231 cells incubated for 16 hrs by Boyden chamber assay; format: functional, cell-based; settings: MDA-MB-231, 16 h
[22] = tested on: MDA-MB-231; test: Antitumor activity against luciferase-tagged human MDA-MB-231 cells xenografted in BALB/c mouse assessed as induction of delayed lung metastasis at 10 mg/kg/3 days, ip measured after 50 days; format: functional, organism-based; settings: time 50.0 day
[23] = tested on: MDA-MB-231; test: Antitumor activity against luciferase-tagged human MDA-MB-231 cells xenografted in BALB/c mouse assessed as reduction in number of metastatic foci in lungs at 10 mg/kg/3 days, ip measured after 50 days by histological analysis; format: functional, organism-based; settings: time 50.0 day
[24] = tested on: MDA-MB-231; test: Antitumor activity against luciferase-tagged human MDA-MB-231 cells xenografted in BALB/c mouse assessed as induction of tumor suppression at 10 mg/kg/3 days, ip measured after 50 days; format: functional, organism-based; settings: time 50.0 day
[25] = tested on: MDA-MB-231; test: Antiangiogenesis activity against luciferase-tagged human MDA-MB-231 cells xenografted in BALB/c mouse assessed as reduction in cell proliferation by measuring Ki67 expression at 10 mg/kg/3 days, ip measured after 50 days by immunostaining; format: functional, organism-based; settings: time 50.0 day
[26] = tested on: MDA-MB-231; test: Antitumor activity against luciferase-tagged human MDA-MB-231 cells xenografted in BALB/c mouse assessed as reduction in metastatic nodules in lymph node at 10 mg/kg/3 days, ip measured after 50 days by H and E staining based histological analysis; format: functional, organism-based; settings: time 50.0 day
[27] = tested on: MDA-MB-231; test: Antiangiogenesis activity against luciferase-tagged human MDA-MB-231 cells xenografted in BALB/c mouse assessed as reduction in number of vessels surrounding tumor nodules by measuring CD31 expression at 10 mg/kg/3 days, ip measured after 50 days by immunostaining; format: functional, organism-based; settings: time 50.0 day

C[C@H](CCC(=O)OCCOCCOCCOCCN=[N+]=[N-])[C@H]1CC[C@H]2[C@@H]3CC[C@@H]4C[C@H](OC(=O)[C@H](CC(=O)O)Nc5ccc([N+](=O)[O-])c6nonc56)CC[C@]4(C)[C@H]3CC[C@]12C
inhibition [1]: Dose-dependent effect | inhibition [2]: Active | Papp [3]: 9 ×10⁻⁶ cm/s | inhibition [4]: Dose-dependent effect | inhibition [5]: Dose-dependent effect | inhibition [6]: Dose-dependent effect | inhibition [7]: Dose-dependent effect | inhibition [8]: Active | inhibition [9]: 0% | inhibition [10]: 50% | Selectivity ratio [11]: > 495 | inhibition [12]: Active | viability [13]: > 90% | inhibition [14]: Active | IC50 [15]: 4.9 µM | inhibition [16]: Active | IC50 [17]: 1.01 µM | Selectivity ratio [18]: < 990 | Ratio IC50 [19]: > 102 | inhibition [20]: Dose-dependent effect | IC50 [21]: 12 µM

CC(=O)O[C@H]1C(=O)[C@@]2(C)[C@H]([C@H](OC(=O)c3ccccc3)[C@]3(O)C[C@H](OC(=O)[C@H](O)[C@@H](NC(=O)c4ccccc4)c4ccccc4)C(C)=C1C3(C)C)[C@]1(OC(C)=O)CO[C@@H]1C[C@@H]2O
Activity [22]: Active | Activity [23]: Active | Activity [24]: Active | Activity [25]: Active | Activity [26]: Active | Activity [27]: Active
